Consider four compounds from patent US4131686A, “Novel benzylalcohol derivatives and processes for preparing the same” (Tanabe Seiyaku Co., Ltd., priority 1975, dated 1978).

As usually defined, the LD50 is the dose expected to kill half of the subjects tested. A low value points to greater toxicity.

Data set [1] is described as follows: acute toxicity: 50% lethal dose (LD50) by oral administration to mice. The conditions noted are these: mouse, in vivo.
The next data set relates to blood sugar. The experiment in a line: blood sugar-lowering test: oral administration to mice prior to subcutaneous injection of glucose (one g/kg). The class given is in vivo. Conditions: 100 mg/kg required; same conditions (mice, oral, s.c. glucose one g/kg).
For another data set, the system named is blood-pressure. Conditions: known cardiotonic compounds, U.S. Pat. 3869474 and Offenlegungsschrift 2420427; cited from earlier work.
In a further data set the test system is adrenergic β1 -receptor. The conditions noted are these: known compounds, U.S. Pat. 3869474 and Offenlegungsschrift 2420427; cited from earlier work.

In the case of `COc1ccc(CCNCC(O)c2ccccc2OC)cc1OC` (racemic) [dl-α-(3,4-dimethoxyphenethylaminomethyl)-2-methoxybenzylalcohol], the LD50 in data set [1] was about 580 mg/kg. For the compound `N=C(N)NC(=N)NCCc1ccccc1` [Phenformin, 1-phenethylbiguanide], in the data set on blood sugar, the “decrease in the blood sugar” value is recorded as about 30%. Consider `COc1cc(CCNCC(O)c2ccc(O)c(O)c2)cc(OC)c1OC` (stereo not drawn) [α-(3,4,5-trimethoxyphenethylaminomethyl)-3,4-dihydroxybenzylalcohol], for which the influence upon blood-pressure entry in the data set on blood-pressure is “no substantial influence”. For the same compound, the “activation of adrenergic β1-receptor” value in the data set on adrenergic β1 -receptor is “selective activation”. As to `COc1ccc(CCNCC(O)c2ccc(O)c(O)c2)cc1OC` (stereo not drawn) [α-(3,4-dimethoxyphenethylaminomethyl)-3,4-dihydroxybenzylalcohol], in the data set on blood-pressure, the influence upon blood-pressure entry is reported as “no substantial influence”. Moreover, the “activation of adrenergic β1-receptor” value in the data set with adrenergic β1 -receptor is “selective activation”.
